Here are results for twelve compounds from US10538516B2, “Oxadiazole derivative and pharmaceutical containing same” (National Center for Geriatrics and Gerontology, priority 2015, dated 2020).

In data set [1] the target is T1, GAβ-dependent amyloid fibril formation (Human Aβ1-40 + GM1-containing liposome) (Homo sapiens, UniProt P05067).
T1 construct: Human Aβ1-40 (cat. #4307-v, prepared by Peptide Institute); purchased Peptide Institute 4307-v
Put plainly: Thioflavin T (ThT) assay of GAβ-dependent amyloid fibril formation (Aβ1-40 with GM1-containing liposome). Type of data set: biochemical. Conditions: inhibition rate against amyloid fibril formation, final concentration of the compound 25 μM; read-out: Inhibitory activity ABC evaluation. The essentials: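 Human Aβ1-40 (75 μM stock) pre-incubated 10 min at room temperature with compound (75 or 15 μM solution), then GM1-containing cholesterol/sphingomyelin liposome added and incubated 37° C, 18 hours. Fibrils quantified by ThT fluorescence (ex 430/em 490 nm, pH 8.5 glycine buffer); inhibition as ratio to compound-free control.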

T1 sequence (P05067 672-711 limits assumed): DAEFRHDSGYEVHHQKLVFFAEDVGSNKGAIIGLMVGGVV

What is called melting point is the temperature of the solid-liquid transition. In turn, `CCCN(C(=O)Cc1nc(-c2ccc(OC)cc2)no1)c1cccc(Cl)c1` [Compound 1, N-(3-chlorophenyl)-2-{3-(4-methoxyphenyl)-1,2,4-oxadiazol-5-yl}-N-propylacetamide] displayed a melting point of 108 °C. Further, in data set [1], the inhibition at 25 µM is under 40%. In turn, `CCCN(C(=O)CCc1nc(-c2ccc(OC)cc2)no1)c1cccc(Cl)c1` [Compound 2, N-(3-chlorophenyl)-3-{3-(4-methoxyphenyl)-1,2,4-oxadiazol-5-yl}-N-propylpropanamide] displayed a melting point of 85 °C. The inhibition at 25 µM in data set [1] was 40 to 80%. In the same order, the values of `COc1ccc(-c2noc(CCC(=O)N(CCO)c3cccc(Cl)c3)n2)cc1` [Compound 3, N-(3-chlorophenyl)-N-(2-hydroxyethyl)-3-{3-(4-methoxyphenyl)-1,2,4-oxadiazol-5-yl}propanamide] are 95 °C and under 40%. Compound `COc1ccc(-c2noc(CCC(=O)Nc3cc(Cl)ccn3)n2)cc1` [Compound 4, N-(4-chloropyridin-2-yl)-3-{3-(4-methoxyphenyl)-1,2,4-oxadiazol-5-yl}propanamide] showed a melting point of 167 °C. Besides, in data set [1], the inhibition at 25 µM was under 40%. The matching figures for `COc1ccc(-c2noc(CCC(=O)N(CCCO)c3cccc(Cl)c3)n2)cc1` [Compound 6, N-(3-chlorophenyl)-N-(3-hydroxypropyl)-3-{3-(4-methoxyphenyl)-1,2,4-oxadiazol-5-yl}propanamide]: 80 °C and 40 to 80%.

For the compound `COc1ccc2[nH]cc(-c3noc([C@H](CO)NC(=O)c4ccc(F)cc4)n3)c2c1` [Compound 261, 4-fluoro-N-[(1S)-2-hydroxy-1-[3-(5-methoxy-1H-indol-3-yl)-1,2,4-oxadiazol-5-yl]ethyl] benzamide], in data set [1], the inhibition at 25 µM was 40 to 80%. As for `O=C(N[C@@H](CO)c1nc(-c2c[nH]c3ccc(C(F)(F)F)cc23)no1)c1ccc(F)cc1` [Compound 262, 4-fluoro-N-[(1S)-2-hydroxy-1-{3-[5-(trifluoromethyl)-1H-indol-3-yl]-1,2,4-oxadiazol-5-yl}ethyl] benzamide], in data set [1], the inhibition at 25 µM lay within 40 to 80%. `O=C(N[C@@H](CO)c1nc(-c2c[nH]c3cc(Cl)ccc23)no1)c1ccc(F)cc1` [Compound 263, N-[(1S)-1-[3-(6-chloro-1H-indol-3-yl)-1,2,4-oxadiazol-5-yl]-2-hydroxyethyl]-4-fluorobenzamide]: the inhibition at 25 µM in data set [1] was 40 to 80%.

For the compound `O=C(N[C@@H](CO)c1nc(-c2cn(CCO)c3ccccc23)no1)c1ccc(F)cc1` [Compound 264], in data set [1], the inhibition at 25 µM was 40 to 80%. As for `O=C(N[C@@H](CO)c1nc(-c2n[nH]c3ccccc23)no1)c1ccc(F)cc1` [Compound 265, 4-fluoro-N-[(1S)-2-hydroxy-1-[3-(1H-indazol-3-yl)-1,2,4-oxadiazol-5-yl]ethyl] benzamide], the inhibition at 25 µM in data set [1] is 40 to 80%. For `O=C(N[C@@H](CO)c1nc(-c2cc3ccccc3[nH]2)no1)c1ccc(F)cc1` [Compound 266, 4-fluoro-N-[(1S)-2-hydroxy-1-[3-(1H-indol-2-yl)-1,2,4-oxadiazol-5-yl]ethyl] benzamide], the inhibition at 25 µM in data set [1] was over 80%. With `O=C(N[C@@H](CO)c1nc(-c2cc3cc(F)ccc3[nH]2)no1)c1ccc(F)cc1` [Compound 267, 4-fluoro-N-[(1S)-1-[3-(5-fluoro-1H-indol-2-yl)-1,2,4-oxadiazol-5-yl]-2-hydroxyethyl] benzamide], the inhibition at 25 µM in data set [1] is over 80%.
